One may read the AUC(0-t) as exposure summed from dosing to a finite time, without extrapolation to infinity. Read a high AUC(0-t) as more exposure. In general, half-life refers to how long it takes for the measured level to halve. One may read the Cmax as the highest concentration seen after dosing. By Tmax is commonly meant the time from dosing to the highest level. A word on the inhibition: it is the change of the read-out against control, counted positive when it falls. Usually NOAEL stands for the highest tested level that showed no adverse finding. Usually bioavailability stands for dose-corrected exposure relative to a reference, in per cent. A low value points to little systemic uptake. The CL/F is the apparent clearance, not corrected for the fraction that reaches the circulation.

Data on 5 molecules can be found in ChEMBL document CHEMBL5050846 (2020).

In series [1] the test system is Rattus norvegicus. Type of series: functional, organism-based. Conditions: dose 100.0 mg/kg.
Series [2] concerns Rattus norvegicus. Briefly: Protection against harmaline-induced tremor in rats at 10 mg/kg. Type of series: functional, organism-based.
Series [3] in a line: Brain to plasma ratio in rat. In kind it is ADME. Conditions: read-out: BPR.
The nature of series [4]: AUClast in rat. Conditions: in vivo. Also on record: time 0 - last. In kind it is ADME.
Series [5] is described as follows: Half-life in rat. Type of series: ADME. Conditions: in vivo.
Series [6] in a line: Cmax in rat. In kind it is ADME. Conditions: in vivo.
Series [7] is described as follows: Tmax in rat. Conditions: in vivo. Type of series: ADME.
The test system of series [8] is Rattus norvegicus. Briefly: Effect on neurobehavioral function in female rats at 30 mg/kg, po administered a single dose at 2 hrs. In kind it is toxicity, organism-based. Conditions: in vivo.
A short description of series [9]: Toxicity in Sprague-Dawley rats at 30 to 1000 mg/kg, po assessed as developmental toxicity. Type of series: organism-based. Conditions: rat, in vivo, dose 30-1000 mg/kg.
The next series has as its target CYP3A5 (Homo sapiens, UniProt P20815). In words: Inhibition of recombinant human CYP3A5 in human liver microsomes at 1 uM relative to control. Type of series: ADME. Background: Microsomes from liver hold many membrane-bound enzymes, among them those of drug oxidation.
Series [10] is described as follows: Plasma concentration in male rats at 25 mg/kg, po at 2 hrs using 1% methylcellulose. In kind it is ADME, organism-based. Conditions: rat.
For series [11], the system named is Canis familiaris. Briefly: Effect on heart rate in dogs at 10 mg/kg, iv. In kind it is toxicity, organism-based, Canis lupus familiaris. Conditions: dog, in vivo.
Series [12] can be described thus: Induction of CYP3A4 mRNA production in primary human hepatocytes at 10 uM relative to control. In kind it is functional, Hepatocyte.
The nature of series [13]: Toxicity in female Sprague-Dawley rats at 10 to 1000 mg/kg, po assessed as effect on fertility. Type of series: organism-based. Conditions: rat, in vivo, dose 10-1000 mg/kg.
Series [14] in a line: Toxicity in rabbits at 30 to 1000 mg/kg, po assessed as maternal toxicity. Type of series: organism-based, Oryctolagus cuniculus. Conditions: rabbit, in vivo, 672 h, dose 30-1000 mg/kg, time 4 weeks.
Series [15] in a line: Toxicity in Beagle dogs at 3 to 300 mg/kg, po measured by 10-day extrapolatory dose-range finding study. Type of series: organism-based, Canis lupus familiaris. Conditions: dog, in vivo, 240 h, dose 3-300 mg/kg.
Series [16] has as its system Rattus norvegicus. In words: Effect on respiratory function in male rats assessed as change in airway resistance at 6 mg/kg, iv. Type of series: toxicity, organism-based. Conditions: in vivo.
The subject of series [17] is Canis familiaris. Briefly: Effect on QTc interval of heart in dogs at 10 mg/kg, iv. Conditions: dog, in vivo. Type of series: toxicity, organism-based, Canis lupus familiaris.
In series [18] the test system is Canis familiaris. Briefly: Effect on blood pressure in dogs at 2 to 300 mg/kg, iv. Type of series: toxicity, organism-based, Canis lupus familiaris. Conditions: dog, in vivo, dose 2-300 mg/kg.
Series [19] is described as follows: Oral bioavailability in dog at 0.5 mg/kg. In kind it is ADME, organism-based, Canis lupus familiaris. Conditions: in vivo.
A short description of series [20]: Brain concentration in male rats at 25 mg/kg, po at 2 hrs using 90% PEG400. Type of series: ADME, organism-based. Conditions: rat, read-out: Drug uptake.
The target in series [21] is T1, pregnane X receptor (PXR, NR1I2) (Homo sapiens, UniProt O75469).
T1 sequence (O75469 whole entry): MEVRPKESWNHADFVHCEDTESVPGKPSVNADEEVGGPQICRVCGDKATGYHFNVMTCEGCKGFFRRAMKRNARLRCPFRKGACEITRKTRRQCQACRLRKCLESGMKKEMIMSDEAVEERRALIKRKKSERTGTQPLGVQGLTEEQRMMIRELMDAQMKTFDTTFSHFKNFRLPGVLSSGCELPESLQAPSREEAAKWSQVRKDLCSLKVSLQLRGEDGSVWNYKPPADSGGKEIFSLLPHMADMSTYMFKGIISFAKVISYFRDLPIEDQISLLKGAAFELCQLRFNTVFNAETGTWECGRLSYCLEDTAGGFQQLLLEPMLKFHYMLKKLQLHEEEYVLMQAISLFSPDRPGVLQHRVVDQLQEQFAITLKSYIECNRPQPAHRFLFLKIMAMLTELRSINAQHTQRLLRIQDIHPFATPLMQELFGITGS
In words: Activation of human pregnane X receptor at 10 uM relative to control. Conditions: read-out: Activity.

The species entered for series [22] is Rattus norvegicus. In words: Effect on sleep architecture of rats assessed as increase in slow wave sleep. Type of series: functional, organism-based.
For series [23], the species on record is Rattus norvegicus. In words: Effect on sleep architecture of rats assessed as increase in rapid eye movement sleep late in sleep period. In kind it is functional, organism-based.
The subject of series [24] is Canis familiaris. Briefly: Effect on QRS duration of heart in dogs at 10 mg/kg, iv. Conditions: dog, in vivo. Type of series: toxicity, organism-based, Canis lupus familiaris.
Series [25] deals with Rattus norvegicus. Briefly: Effect on neurobehavioral function in female rats assessed as increase in foot splay width at 15 mg/kg, po administered a single dose. Conditions: in vivo. In kind it is toxicity, organism-based.
Series [26] has as its system Canis familiaris. In words: Effect on PR interval of heart in dogs at 2 to 300 mg/kg, iv. Conditions: dog, in vivo, dose 2-300 mg/kg. In kind it is toxicity, organism-based, Canis lupus familiaris.
Series [27] can be described thus: Toxicity in rats at 10 to 1000 mg/kg, po assessed as developmental toxicity. Type of series: organism-based. Conditions: rat, in vivo, dose 10-1000 mg/kg.
Series [28] relates to Rattus norvegicus. Briefly: Protection against amphetamine-induced psycho-motor activity in rat at 1 to 10 mg/kg, po. In kind it is functional, organism-based. Conditions: dose 1-10 mg/kg.
Series [29] deals with Rattus norvegicus. Briefly: Effect on respiratory function in female rats assessed as increase in PenH at 300 to 2000 mg/kg, po. In kind it is toxicity, organism-based. Conditions: in vivo, dose 300-2000 mg/kg.
Series [30] is described as follows: Toxicity in rabbits at 30 to 1000 mg/kg, po assessed as developmental toxicity. Type of series: organism-based, Oryctolagus cuniculus. Conditions: rabbit, in vivo, dose 30-1000 mg/kg.
A short description of series [31]: Toxicity in Sprague-Dawley rats at 30 to 2000 mg/kg, po assessed as micronuclei induction in bone marrow. In kind it is organism-based. Conditions: rat, in vivo, dose 30-2000 mg/kg.
A short description of series [32]: Brain concentration in male rats at 25 mg/kg, po at 2 hrs using 1% methylcellulose. Conditions: rat, read-out: Drug uptake. In kind it is ADME, organism-based.
Another series deals with Hepatocyte. Briefly: Induction of […] mRNA production in primary human hepatocytes at 10 uM relative to control. In kind it is functional, cell-based.
Series [33] has as its system Rattus norvegicus. In kind it is functional, organism-based. Conditions: dose 3-30 mg/kg.
For series [34], the system named is Rattus norvegicus. In words: Effect on neurobehavioral function in female rats at 30 to 3000 mg/kg, po. In kind it is toxicity, organism-based. Conditions: in vivo, dose 30-3000 mg/kg.
Series [35] concerns Canis familiaris. Briefly: Effect on QRS duration of heart in dogs at 2 to 300 mg/kg, iv. In kind it is toxicity, organism-based, Canis lupus familiaris. Conditions: dog, in vivo, dose 2-300 mg/kg.
The species named for series [36] is Rattus norvegicus. In words: Effect on sleep architecture of rats assessed as decrease in rapid eye movement sleep early in sleep period. Type of series: functional, organism-based.
In series [37] the test system is Canis familiaris. In words: Effect on core body temperature in dogs at 2 to 300 mg/kg, iv. Type of series: toxicity, organism-based, Canis lupus familiaris. Conditions: dog, in vivo, dose 2-300 mg/kg.
Another series has as its target CYP3A4 (Homo sapiens, UniProt P08684). Briefly: Inhibition of recombinant human CYP3A4 in human liver microsomes at 1 uM relative to control. Type of series: ADME.
Series [38] in a line: Toxicity in Sprague-Dawley rats at 30 to 1000 mg/kg, po assessed as maternal toxicity. Conditions: rat, in vivo, dose 30-1000 mg/kg. Type of series: organism-based.
The nature of series [39]: Plasma concentration in male rats at 25 mg/kg, po at 2 hrs using 90% PEG400. Conditions: rat. Type of series: ADME, organism-based.
Series [40] has as its system Rattus norvegicus. In words: Effect on neurobehavioral function in female rats at 30 mg/kg, po administered a single dose at 24 hrs. In kind it is toxicity, organism-based. Conditions: in vivo.
Series [41] in a line: Half-life in dog at 0.5 mg/kg, po. Type of series: ADME, organism-based, Canis lupus familiaris. Conditions: in vivo.
A short description of series [42]: Clearance in dog at 0.5 mg/kg, po. Type of series: ADME, organism-based, Canis lupus familiaris. Conditions: in vivo.
Series [43] relates to Rattus norvegicus. In kind it is functional, organism-based. Conditions: dose 10.0 mg/kg.
Series [44] can be described thus: Toxicity in female Sprague-Dawley rats at 10 to 1000 mg/kg, po. Conditions: rat, in vivo, dose 10-1000 mg/kg. Type of series: organism-based.
The test system of series [45] is Rattus norvegicus. Briefly: Effect on respiratory function in female rats assessed as increase in PenH at 30 mg/kg, po. In kind it is toxicity, organism-based. Conditions: in vivo.
The test system of series [46] is Canis familiaris. In words: Effect on QTc interval of heart in dogs at 2 to 300 mg/kg, iv. Type of series: toxicity, organism-based, Canis lupus familiaris. Conditions: dog, in vivo, dose 2-300 mg/kg.

SMILES strings stand for the structures. The source made the active and inactive calls. The rule behind the calls is not given here. A value given as a limit tells only on which side of the number the result lay.

Sequence of CYP3A4 (P08684 whole entry): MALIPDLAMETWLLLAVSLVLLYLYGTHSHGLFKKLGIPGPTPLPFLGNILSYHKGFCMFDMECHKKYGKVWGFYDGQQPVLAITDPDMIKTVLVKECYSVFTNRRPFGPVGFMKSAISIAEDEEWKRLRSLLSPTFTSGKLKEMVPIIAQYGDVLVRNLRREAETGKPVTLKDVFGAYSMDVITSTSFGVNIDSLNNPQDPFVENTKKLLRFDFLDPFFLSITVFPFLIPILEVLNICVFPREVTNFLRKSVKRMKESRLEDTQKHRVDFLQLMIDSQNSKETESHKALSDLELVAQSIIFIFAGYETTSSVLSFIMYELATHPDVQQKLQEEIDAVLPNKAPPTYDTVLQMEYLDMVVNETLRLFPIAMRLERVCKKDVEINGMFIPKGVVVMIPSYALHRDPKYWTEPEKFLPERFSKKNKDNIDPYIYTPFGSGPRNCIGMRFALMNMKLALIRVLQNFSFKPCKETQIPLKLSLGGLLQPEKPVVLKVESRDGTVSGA
Sequence of CYP3A5 (P20815 whole entry): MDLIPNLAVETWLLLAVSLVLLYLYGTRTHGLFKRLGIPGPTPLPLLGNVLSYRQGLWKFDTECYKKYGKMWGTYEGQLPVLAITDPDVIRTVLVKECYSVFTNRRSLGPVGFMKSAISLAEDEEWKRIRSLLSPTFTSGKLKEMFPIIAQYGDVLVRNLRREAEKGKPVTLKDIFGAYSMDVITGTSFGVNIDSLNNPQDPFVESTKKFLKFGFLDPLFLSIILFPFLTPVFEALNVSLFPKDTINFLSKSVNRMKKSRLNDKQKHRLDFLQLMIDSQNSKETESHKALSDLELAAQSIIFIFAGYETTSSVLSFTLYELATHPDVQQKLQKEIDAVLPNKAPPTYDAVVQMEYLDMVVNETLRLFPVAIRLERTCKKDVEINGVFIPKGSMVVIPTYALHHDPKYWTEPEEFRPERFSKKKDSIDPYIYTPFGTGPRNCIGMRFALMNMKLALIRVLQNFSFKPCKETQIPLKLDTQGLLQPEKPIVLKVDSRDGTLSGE

With `CCC1(C)CC(=O)NC1=O` (configuration not stated), the Activity entry with Rattus norvegicus [1] was “Active”.
`CC1(C)C[C@@H](CN2CCC(F)(CNC(=O)c3cc(Cl)cc(Cl)c3)CC2)CCO1`: the Activity result in the series on Rattus norvegicus [2] was “Active”.
Turning to `C[C@@H](NC(=O)Cc1ccc(C2CC2)cc1)c1ccc(OCC(F)(F)F)cn1`, the Kp in series [3] is 0.27. This molecule gave an area under the curve AUC(0-t) in [4] of 30 µM·h. Further, the half-life in series [5] was 1.5 h. Also, the Cmax in series [6] stood at 7.5 µM. Also, in [7], the time to peak (Tmax) was 0.3 h.
Take `CC(C)c1ccc(CC(=O)N[C@H](C)c2ccc(OCC(F)(F)F)cn2)cc1` [SUVECALTAMIDE]: the Activity entry is on record as “Non-Toxic” in the series with Rattus norvegicus [8]; “Toxic” in series [9]; “Non-Toxic” in the series with Canis familiaris [11]; “<=10%” in series [12]; “Toxic” in series [14]; “Non-Toxic” in [15]. Also, the Activity result is on record as “Non-Toxic” in the series on Rattus norvegicus [16]; “Non-Toxic” with Canis familiaris [17]; “Non-Toxic” with Canis familiaris [18]; “Non-Toxic” in the series with Canis familiaris [24]; “Toxic” with Rattus norvegicus [25]; “Non-Toxic” in the series on Canis familiaris [26]. Moreover, the Activity result in series [27] was “Non-Toxic”; in the series with Rattus norvegicus [29], “Non-Toxic”; in series [30], “Toxic”; in [31], “Non-Toxic”; with Rattus norvegicus [34], “Non-Toxic”; in the series with Canis familiaris [35] it was “Non-Toxic”. Also, the Activity entry is listed as “Non-Toxic” in the series with Canis familiaris [37]; “Toxic” in series [38]; “Non-Toxic” in the series with Rattus norvegicus [40]; “Non-Toxic” with Rattus norvegicus [45]; “Non-Toxic” in the series with Canis familiaris [46]. Besides, the inhibition at 1 µM on CYP3A5 and on CYP3A4 was > 80% in each case. Also, the concentration at 2 h was 6.3 µM in series [10], 1.8 µM in [20], 3.1 µM in series [32] and 3.3 µM in series [39]. For the same molecule, the NOAEL was ≥ 1000 mg/kg/day in series [13] and 100 mg/kg/day in series [44]. The molecule further came in with a bioavailability in series [19] of 47%. Moreover, the activity at 10 µM in [21] is ≤ 34%. The Activity result in the series filed under Rattus norvegicus [22], in the series listed under Rattus norvegicus [23], in the series with Rattus norvegicus [28], with Hepatocyte, in the series with Rattus norvegicus [33] and in the series listed under Rattus norvegicus [36] was “Active” throughout. The Activity result in the series with Rattus norvegicus [43] is “Active”. Moreover, in series [41], the t1/2 was 3.1 h. The CL/F in series [42] was found to be 0.4 mL/min/kg.
Consider `N#Cc1ccc([C@@]2(C3CC3)c3cc(Cl)ccc3NC(=O)N2CC(F)(F)F)cc1`, for which the Kp in [3] came out at 1.1. The half-life in series [5] was 5.9 h. In addition, the concentration in [6] peaked (Cmax) at 3 µM.
